Where “and” joins values, the source holds several entries; their conditions need not be identical. Identical values can stand only once. Entries after “also recorded” stand apart in the source; their conditions may differ. Like-named read-outs stand apart in the source and are kept apart here.
Columns and labels:
[1] = biological target: T1, HyNaC2/3/5 (Hydra vulgaris (Hydra magnipapillata), UniProt A8DZR6+A8DZR7+D3UD58); assay: Activation of HyNaC2/3/5 expressed in Xenopus oocytes by Hydra-RFamides (TEVC); format: cell-based
T1 sequence (A8DZR6 entry or part of it): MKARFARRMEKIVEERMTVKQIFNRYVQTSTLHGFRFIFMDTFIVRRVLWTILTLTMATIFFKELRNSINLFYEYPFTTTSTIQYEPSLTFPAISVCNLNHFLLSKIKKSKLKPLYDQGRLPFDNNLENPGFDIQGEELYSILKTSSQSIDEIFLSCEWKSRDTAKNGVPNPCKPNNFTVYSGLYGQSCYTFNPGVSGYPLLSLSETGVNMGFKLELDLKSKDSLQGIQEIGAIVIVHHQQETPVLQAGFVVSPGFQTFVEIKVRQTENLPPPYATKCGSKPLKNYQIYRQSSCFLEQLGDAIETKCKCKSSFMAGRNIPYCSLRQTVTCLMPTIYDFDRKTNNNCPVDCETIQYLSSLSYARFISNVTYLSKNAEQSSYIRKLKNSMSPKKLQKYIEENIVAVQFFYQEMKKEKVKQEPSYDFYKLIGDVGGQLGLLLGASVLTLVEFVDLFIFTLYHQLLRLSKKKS
T1 sequence (D3UD58 entry or part of it): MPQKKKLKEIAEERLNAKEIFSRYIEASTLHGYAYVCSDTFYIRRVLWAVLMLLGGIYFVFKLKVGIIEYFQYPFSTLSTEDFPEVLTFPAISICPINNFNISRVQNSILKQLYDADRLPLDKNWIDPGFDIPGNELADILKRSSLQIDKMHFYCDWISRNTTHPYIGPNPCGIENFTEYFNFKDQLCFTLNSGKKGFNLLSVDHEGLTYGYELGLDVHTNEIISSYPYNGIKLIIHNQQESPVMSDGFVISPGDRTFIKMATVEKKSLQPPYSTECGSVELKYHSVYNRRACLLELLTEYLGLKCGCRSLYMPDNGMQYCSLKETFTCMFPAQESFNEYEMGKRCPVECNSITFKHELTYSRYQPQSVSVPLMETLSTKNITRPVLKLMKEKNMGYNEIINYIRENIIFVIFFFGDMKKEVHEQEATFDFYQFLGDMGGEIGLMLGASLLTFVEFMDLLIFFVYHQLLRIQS
T1 sequence (A8DZR7 entry or part of it): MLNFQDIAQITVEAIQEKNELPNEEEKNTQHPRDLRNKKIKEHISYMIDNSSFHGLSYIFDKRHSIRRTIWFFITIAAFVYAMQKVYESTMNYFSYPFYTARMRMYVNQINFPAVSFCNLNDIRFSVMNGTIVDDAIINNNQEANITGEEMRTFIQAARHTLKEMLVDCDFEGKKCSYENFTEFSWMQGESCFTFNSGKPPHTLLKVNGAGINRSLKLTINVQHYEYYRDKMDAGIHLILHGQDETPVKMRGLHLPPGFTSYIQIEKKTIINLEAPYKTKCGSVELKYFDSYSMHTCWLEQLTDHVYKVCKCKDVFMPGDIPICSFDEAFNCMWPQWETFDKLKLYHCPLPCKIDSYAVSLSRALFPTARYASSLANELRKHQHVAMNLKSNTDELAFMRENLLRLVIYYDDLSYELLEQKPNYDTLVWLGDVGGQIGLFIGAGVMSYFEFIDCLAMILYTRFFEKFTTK
Experimental: (§1) To study the biophysical properties of the new HyNaCs, cRNA of HyNaCs was synthesized in vitro (mMessage mMachine kit, Ambion, Austin, Texas, USA) and injected into Xenopus laevis oocytes of stage V and VI. After injection, oocytes were incubated for one to two days at 19°C in oocyte Ringer’s solution 2 (OR-2), which contained (in mM): 82.5 NaCl, 2.5 KCl, 1.0 Na2HPO4, 1.0 MgCl2, 1.0 CaCl2, 5.0 HEPES, 0.5 g/l PVP, 1,000 U/l penicillin and 10 mg/l streptomycin, NaOH was used to adjust pH to 7.3. Whole cell currents were recorded from defolliculated oocytes by two-electrode voltage-clamp (TEVC) using the amplifier TurboTec 03X (npi electronic GmbH, Tamm, Germany). Standard bath solution (in mM: 140 NaCl, 10 HEPES, 1.8 CaCl2 and 1.0 MgCl2. NaOH was used to adjust pH to 7.4.) was exchanged by a pump driven system combined with the oocyte testing carousel (OTC), which was controlled by the interface OTC-20 [53]. To control the OTC-20 and to record the data to the hard drive, the software CellWorks (version 5.1.1; npi electronic GmbH, Tamm, Germany) was used. Data were sampled at 0.1 to 1 kHz and filtered at 20 Hz. HyNaCs are permeable for Ca^2+, activating an endogenous CaCC [40]. Therefore, unless otherwise indicated, oocytes were injected with 50 nl of 20 mM EGTA 30 to 180 minutes before measurements. Reversal potentials and Ca^2+ permeabilities of HyNaCs were studied as described previously.
(§2) EC50 values for Hydra-RFamides I and II as well as IC50 values for diminazene were determined by fits to the Hill equation using IGOR Pro (version 6.06, WaveMetrics, Inc.). Reversal potentials were defined as the first recorded data point, where currents reversed signs from negative to positive. For I/V relationships, voltage ramps in the absence of the agonist were used to subtract background conductances. Results are reported as mean ± standard error.

[2] = biological target: T2, HyNaC2/11/5 (Hydra vulgaris (Hydra magnipapillata), UniProt A0A0A0MP55+A8DZR6+D3UD58); assay: Activation of HyNaC2/11/5 expressed in Xenopus oocytes by Hydra-RFamides (TEVC); format: cell-based
T2 sequence (A0A0A0MP55 entry or part of it): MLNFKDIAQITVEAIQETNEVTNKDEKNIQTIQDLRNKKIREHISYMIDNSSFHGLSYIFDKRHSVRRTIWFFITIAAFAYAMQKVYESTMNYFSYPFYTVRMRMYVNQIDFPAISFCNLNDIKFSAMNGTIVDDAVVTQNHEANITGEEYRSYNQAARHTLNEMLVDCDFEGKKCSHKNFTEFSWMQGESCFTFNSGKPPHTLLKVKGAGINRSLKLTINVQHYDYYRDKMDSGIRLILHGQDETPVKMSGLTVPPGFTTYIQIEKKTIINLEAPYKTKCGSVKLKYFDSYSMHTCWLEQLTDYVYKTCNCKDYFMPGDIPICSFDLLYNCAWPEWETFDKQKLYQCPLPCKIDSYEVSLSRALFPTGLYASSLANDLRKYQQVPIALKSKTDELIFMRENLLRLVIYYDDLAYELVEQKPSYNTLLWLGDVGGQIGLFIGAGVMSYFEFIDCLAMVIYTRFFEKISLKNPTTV
T2 sequence (A8DZR6 entry or part of it): as the sequence (A8DZR6 entry or part of it) above
T2 sequence (D3UD58 entry or part of it): as the sequence (D3UD58 entry or part of it) above
Experimental: as §1, §2

[3] = biological target: T3, HyNaC2/3/6 (Hydra vulgaris (Hydra magnipapillata), UniProt A0A0A0MP54+A8DZR6+A8DZR7); assay: Activation of HyNaC2/3/6 expressed in Xenopus oocytes by Hydra-RFamides (TEVC); format: cell-based
T3 sequence (A0A0A0MP54 entry or part of it): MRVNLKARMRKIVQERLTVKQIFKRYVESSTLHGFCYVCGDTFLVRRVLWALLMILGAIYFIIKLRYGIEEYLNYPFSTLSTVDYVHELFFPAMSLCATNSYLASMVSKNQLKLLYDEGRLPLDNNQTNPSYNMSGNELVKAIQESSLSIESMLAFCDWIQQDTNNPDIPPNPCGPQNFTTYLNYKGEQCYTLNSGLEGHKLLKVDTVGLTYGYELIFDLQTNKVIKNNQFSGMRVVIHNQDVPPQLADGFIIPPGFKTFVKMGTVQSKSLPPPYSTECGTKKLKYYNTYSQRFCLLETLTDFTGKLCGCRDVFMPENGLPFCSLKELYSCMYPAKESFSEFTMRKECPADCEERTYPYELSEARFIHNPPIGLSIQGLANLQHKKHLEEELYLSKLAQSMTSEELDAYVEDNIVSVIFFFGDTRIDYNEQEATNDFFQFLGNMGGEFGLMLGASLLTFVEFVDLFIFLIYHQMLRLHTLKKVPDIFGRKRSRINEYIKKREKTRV
T3 sequence (A8DZR7 entry or part of it): as the sequence (A8DZR7 entry or part of it) above
T3 sequence (A8DZR6 entry or part of it): as the sequence (A8DZR6 entry or part of it) above
Experimental: as §1, §2

[4] = biological target: T4, HyNaC2/4/6 (Hydra vulgaris (Hydra magnipapillata), UniProt A0A0A0MP54+A8DZR6+A8DZR8); assay: Activation of HyNaC2/4/6 expressed in Xenopus oocytes by Hydra-RFamides (TEVC); format: cell-based
T4 sequence (A8DZR8 entry or part of it): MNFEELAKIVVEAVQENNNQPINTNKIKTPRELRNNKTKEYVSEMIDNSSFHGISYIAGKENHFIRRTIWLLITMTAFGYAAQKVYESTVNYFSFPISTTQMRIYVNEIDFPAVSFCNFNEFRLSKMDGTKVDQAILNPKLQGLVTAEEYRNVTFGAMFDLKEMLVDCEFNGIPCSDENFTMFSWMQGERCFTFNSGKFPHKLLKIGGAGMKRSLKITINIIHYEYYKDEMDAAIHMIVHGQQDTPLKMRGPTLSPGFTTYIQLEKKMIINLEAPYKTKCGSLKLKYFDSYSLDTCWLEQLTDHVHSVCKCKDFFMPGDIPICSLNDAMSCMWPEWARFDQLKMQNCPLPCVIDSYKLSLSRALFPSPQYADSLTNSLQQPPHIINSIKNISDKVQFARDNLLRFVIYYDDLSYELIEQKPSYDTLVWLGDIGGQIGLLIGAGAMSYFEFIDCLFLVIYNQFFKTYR
T4 sequence (A0A0A0MP54 entry or part of it): as the sequence (A0A0A0MP54 entry or part of it) above
T4 sequence (A8DZR6 entry or part of it): as the sequence (A8DZR6 entry or part of it) above
Experimental: as §1, §2

[5] = biological target: T5, HyNaC2/3/7 (Hydra vulgaris (Hydra magnipapillata), UniProt A0A0A0MP73+A8DZR6+A8DZR7); assay: Activation of HyNaC2/3/7 expressed in Xenopus oocytes by Hydra-RFamides (TEVC); format: cell-based
T5 sequence (A8DZR7 entry or part of it): as the sequence (A8DZR7 entry or part of it) above
T5 sequence (A0A0A0MP73 entry or part of it): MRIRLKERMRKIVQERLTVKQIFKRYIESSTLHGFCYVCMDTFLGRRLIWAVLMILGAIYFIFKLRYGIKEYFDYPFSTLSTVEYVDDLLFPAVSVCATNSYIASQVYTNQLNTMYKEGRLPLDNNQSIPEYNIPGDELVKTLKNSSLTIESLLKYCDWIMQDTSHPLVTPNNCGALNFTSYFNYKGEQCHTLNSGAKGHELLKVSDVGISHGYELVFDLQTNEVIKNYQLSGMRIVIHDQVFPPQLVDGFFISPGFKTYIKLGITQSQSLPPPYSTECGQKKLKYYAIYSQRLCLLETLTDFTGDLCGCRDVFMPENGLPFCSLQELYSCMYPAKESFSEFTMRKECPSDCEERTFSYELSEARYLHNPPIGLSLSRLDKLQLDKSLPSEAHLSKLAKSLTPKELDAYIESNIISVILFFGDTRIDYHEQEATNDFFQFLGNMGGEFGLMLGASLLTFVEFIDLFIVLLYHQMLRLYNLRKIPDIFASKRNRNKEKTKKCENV
T5 sequence (A8DZR6 entry or part of it): as the sequence (A8DZR6 entry or part of it) above
Experimental: as §1, §2

[6] = biological target: T6, HyNaC2/9/7 (Hydra vulgaris (Hydra magnipapillata), UniProt A0A0A0MP48+A0A0A0MP73+A8DZR6); assay: Activation of HyNaC2/9/7 expressed in Xenopus oocytes by Hydra-RFamides (TEVC); format: cell-based
T6 sequence (A0A0A0MP48 entry or part of it): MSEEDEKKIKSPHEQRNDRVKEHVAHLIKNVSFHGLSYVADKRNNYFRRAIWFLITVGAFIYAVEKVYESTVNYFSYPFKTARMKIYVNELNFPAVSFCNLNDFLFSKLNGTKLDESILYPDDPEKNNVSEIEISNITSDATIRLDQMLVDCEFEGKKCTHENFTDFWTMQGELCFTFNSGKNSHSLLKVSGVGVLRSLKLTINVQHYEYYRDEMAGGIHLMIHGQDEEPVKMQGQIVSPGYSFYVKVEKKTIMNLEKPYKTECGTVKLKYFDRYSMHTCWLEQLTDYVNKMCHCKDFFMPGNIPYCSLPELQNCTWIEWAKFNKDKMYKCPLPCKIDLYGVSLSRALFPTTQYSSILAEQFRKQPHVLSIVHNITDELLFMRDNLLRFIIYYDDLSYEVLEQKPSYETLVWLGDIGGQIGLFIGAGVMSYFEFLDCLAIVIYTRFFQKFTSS
T6 sequence (A8DZR6 entry or part of it): as the sequence (A8DZR6 entry or part of it) above
T6 sequence (A0A0A0MP73 entry or part of it): as the sequence (A0A0A0MP73 entry or part of it) above
Experimental: as §1, §2

[7] = biological target: T7, HyNaC2/10/7 (Hydra vulgaris (Hydra magnipapillata), UniProt A0A0A0MP61+A0A0A0MP73+A8DZR6); assay: Activation of HyNaC2/10/7 expressed in Xenopus oocytes by Hydra-RFamides (TEVC); format: cell-based; settings: EGTA-injected oocytes, saturating ligand concentration not reached
T7 sequence (A0A0A0MP61 entry or part of it): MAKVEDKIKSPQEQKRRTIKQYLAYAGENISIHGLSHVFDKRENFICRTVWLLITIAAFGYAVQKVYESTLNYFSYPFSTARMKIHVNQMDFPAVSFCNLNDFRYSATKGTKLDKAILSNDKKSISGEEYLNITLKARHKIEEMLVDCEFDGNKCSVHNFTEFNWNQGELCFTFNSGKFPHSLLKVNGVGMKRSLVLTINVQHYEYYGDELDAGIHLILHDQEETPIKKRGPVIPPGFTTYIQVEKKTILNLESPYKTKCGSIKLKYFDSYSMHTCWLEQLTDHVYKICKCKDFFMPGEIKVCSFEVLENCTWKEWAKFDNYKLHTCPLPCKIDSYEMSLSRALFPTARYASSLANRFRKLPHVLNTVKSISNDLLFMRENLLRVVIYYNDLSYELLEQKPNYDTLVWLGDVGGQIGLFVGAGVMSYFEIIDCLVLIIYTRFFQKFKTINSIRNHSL
T7 sequence (A0A0A0MP73 entry or part of it): as the sequence (A0A0A0MP73 entry or part of it) above
T7 sequence (A8DZR6 entry or part of it): as the sequence (A8DZR6 entry or part of it) above
Experimental: as §1, §2

[8] = tested on: functional HyNaC heterotrimer; assay: Screen of functional HyNaC heterotrimers in Xenopus oocytes for activation by Hydra-RFamides; format: cell-based, Hydra magnipapillata; settings: 5 μM peptide; Xenopus oocytes
Experimental: We tested the function of the new HyNaCs by co-expression of different HyNaC subunit combinations in Xenopus oocytes. We screened for functional subunit combinations by application of 5 μM Hydra-RFamide I, a potent agonist of HyNaC2/3/5 [4]. When we expressed an individual HyNaC subunit we could never elicit currents. […] When HyNaC2 was part of the injected cRNA pool, however, Hydra-RFamide I elicited currents. Simultaneous expression of HyNaC2 with a single other HyNaC resulted only in a functional channel when we co-expressed HyNaC2 and HyNaC3; it was already known that HyNaC2 and HyNaC3 form a low-affinity peptide-gated channel.
Dashed line represents the zero current level. Amino acid sequences of Hydra-RFamides I to V are shown at the bottom. HyNaC, Hydra Na^+ channel.
Since Hydra-RFamide II had been shown previously to activate HyNaC2/3/5 [4], we tested Hydra-RFamides II to V for channel activation.
as §1

[9] = tested on: HyNaC2/9/5; assay: Activation of HyNaC2/9/5 in Xenopus oocytes by Hydra-RFamides; format: cell-based, Hydra magnipapillata; settings: channel opened by lowering extracellular Ca2+
Experimental: (§3) The contribution of the distantly related HyNaC12 to peptide-gated channels was assessed by co-expression with HyNaC2 and one or several other HyNaCs (HyNaC3 to HyNaC11). In addition, HyNaC12 was co-expressed with pools of different HyNaCs without HyNaC2. […] In fact, all HyNaCs that were activated by Hydra-RFamide I were opened by lowering the extracellular Ca^2+ concentration ([Ca^2+]e) to 10 nM (Figure 4). […] Some DEG/ENaCs are constitutively opened by an amino acid substitution at the so-called DEG-position. To further investigate whether HyNaC12 forms a functional homomeric channel, we substituted a glycine at the DEG-position by threonine (G436T), which has a large side chain. This substitution did, however, not constitutively open HyNaC12 (data not shown). This applies also for the co-expression of HyNaC12-G436T together with pools of different wild-type HyNaC subunits, leaving the function of HyNaC12 unknown.
(§4) To study the biophysical properties of the new HyNaCs, cRNA of HyNaCs was synthesized in vitro (mMessage mMachine kit, Ambion, Austin, Texas, USA) and injected into Xenopus laevis oocytes of stage V and VI. […] Whole cell currents were recorded from defolliculated oocytes by two-electrode voltage-clamp (TEVC) using the amplifier TurboTec 03X (npi electronic GmbH, Tamm, Germany). […]

[10] = tested on: HyNaCs containing HyNaC12; assay: Activation of HyNaC12-containing subunit combinations in Xenopus oocytes by Hydra-RFamides; format: cell-based, Hydra magnipapillata; settings: HyNaC12 co-expressed with HyNaC2 and other HyNaCs or pools; 5 μM peptide
Experimental: as §3, with “unknown. […]” for “unknown.”
as §4

[11] = biological target: T1, HyNaC2/3/5; design: method as in PMID 20159980; settings: for comparison, ref [4], read-out: EC50 for Hydra-RFamide I; cited from earlier work
[12] = biological target: T1, HyNaC2/3/5; assay: Inhibition of HyNaC2/3/5 currents in Xenopus oocytes (TEVC); format: cell-based; settings: read-out: IAmil/I, relative current remaining after block by 100 μM amiloride
Experimental: (§5) One of the hallmarks of DEG/ENaCs is the block by the diuretic amiloride.
(§6) Figure 10 Diminazene is a potent inhibitor of HyNaCs. A) Current trace illustrating the concentration-dependent inhibition of HyNaC2/9/7 by diminazene. Block by 100 μM amiloride was used to compare the affinity for diminazene and amiloride. […] Dashed lines represent the zero current level. B) Concentration-response curves showing the concentration-dependent inhibition of HyNaCs by diminazene. HyNaCs, Hydra Na^+ channels.
as §4
(§7) EC50 values for Hydra-RFamides I and II as well as IC50 values for diminazene were determined by fits to the Hill equation using IGOR Pro (version 6.06, WaveMetrics, Inc.). Reversal potentials were defined as the first recorded data point, where currents reversed signs from negative to positive. […]

[13] = biological target: T2, HyNaC2/11/5; assay: Inhibition of HyNaC2/11/5 currents in Xenopus oocytes (TEVC); format: cell-based; settings: read-out: IAmil/I, relative current remaining after block by 100 μM amiloride
Experimental: as §5, §6, §4, §7

[14] = biological target: T3, HyNaC2/3/6; assay: Inhibition of HyNaC2/3/6 currents in Xenopus oocytes (TEVC); format: cell-based; settings: read-out: IAmil/I, relative current remaining after block by 100 μM amiloride
Experimental: as §5, §6, §4, §7

[15] = biological target: T4, HyNaC2/4/6; assay: Inhibition of HyNaC2/4/6 currents in Xenopus oocytes (TEVC); format: cell-based; settings: read-out: IAmil/I, relative current remaining after block by 100 μM amiloride
Experimental: as §5, §6, §4, §7

[16] = biological target: T5, HyNaC2/3/7; assay: Inhibition of HyNaC2/3/7 currents in Xenopus oocytes (TEVC); format: cell-based; settings: read-out: IAmil/I, relative current remaining after block by 100 μM amiloride
Experimental: as §5, §6, §4, §7

[17] = biological target: T6, HyNaC2/9/7; assay: Inhibition of HyNaC2/9/7 currents in Xenopus oocytes (TEVC); format: cell-based; settings: read-out: IAmil/I, relative current remaining after block by 100 μM amiloride
Experimental: as §5, §6, §4, §7

[18] = biological target: T7, HyNaC2/10/7; assay: Inhibition of HyNaC2/10/7 currents in Xenopus oocytes (TEVC); format: cell-based; settings: read-out: IAmil/I, relative current remaining after block by 100 μM amiloride
Experimental: as §5, §6, §4, §7

[19] = biological target: T1, HyNaC2/3/5; design: method as in PMID 20159980; settings: ref [4], read-out: IC50 (apparent amiloride affinity); cited from earlier work
[20] = tested on: Hydra magnipapillata; design: method as in PMID 20159980; settings: 100 μM amiloride; ref [4]; cited from earlier work
[21] = EGTA-injected oocytes, read-out: EC50 RFa I
[22] = Hydra-RFamide I concentration-response

## Hydra-RFamide I
[1]; EGTA-injected oocytes
  Imax RFa I, current amplitude at maximal concentration of Hydra-RFamide I: 9.2 ± 1.9 μA and 9.2 ± 1.9 (9) μA
[1]; [21]
  EC50: 3.48 ± 0.55 µM
[1]; [22]
  Hill Coeff.: 1.2 ± 0.1
[2]; [21]
  EC50: 13.8 ± 1.9 µM
[2]; [22]
  Hill Coeff.: 0.9 ± 0.1
[3]; EGTA-injected oocytes
  EC50: 0.29 ± 0.06 µM
  Imax RFa I, current amplitude at maximal concentration of Hydra-RFamide I: 15.7 ± 3.2 μA and 15.7 ± 3.2 (10) μA
[3]; [22]
  Hill Coeff.: 1.2 ± 0.2
[4]; EGTA-injected oocytes
  EC50: 0.7 ± 0.08 µM
[4]; [22]
  Hill Coeff.: 1.3 ± 0.1
[5]; EGTA-injected oocytes
  EC50: 0.19 ± 0.04 µM
  Imax RFa I, current amplitude at maximal concentration of Hydra-RFamide I: 19.6 ± 1.8 μA and 19.6 ± 1.8 (14) μA
[5]; [22]
  Hill Coeff.: 1.6 ± 0.4
[6]; [21]
  EC50: 0.04 ± 0.01 µM
[6]; [22]
  Hill Coeff.: 1.5 ± 0.3
[7]
  EC50: > 30 µM
  EC50 RFa I: too low to calculate the EC50 precisely
[8]
  activation of functional HyNaC heterotrimers (current elicited): activation of HyNaCs
[9]
  activation of HyNaC2/9/5: insensitive; also recorded: not activated
[10]
  activation of channels containing HyNaC12: In no case did this result in channels that could be activated
[11]
  EC50: ~5 µM

## N=C(N)NC(=O)c1nc(Cl)c(N)nc1N [amiloride]
[12]
  remaining activity at 100 µM: 50 ± 10%
[13]
  remaining activity at 100 µM: 70 ± 10%
[14]
  remaining activity at 100 µM: 30 ± 10%
[15]
  remaining activity at 100 µM: 30 ± 10%
[16]
  remaining activity at 100 µM: 30 ± 10%
[17]
  remaining activity at 100 µM: 30 ± 10%
[18]
  remaining activity at 100 µM: 80 ± 10%
[19]
  IC50: ~120 µM
[20]
  feeding reaction of living Hydra: delays the feeding reaction

From publication PMC4212090, “The comprehensive analysis of DEG/ENaC subunits in Hydra reveals a large variety of peptide-gated channels, potentially involved in neuromuscular transmission” (BMC Biology, 2014)
